Measurements: PubChem BioAssay AID1996
In brackets after ≈: the same amount, converted by molar mass.

Conditions: buffer; pH 7.4; 200.0 µM

solubility kinetic	SMILES
< 0.4 µg/mL	O=C(Nc1ccc(Cl)cn1)c1cc2c(s1)-c1ccccc1OC2
> 47.5 µg/mL	O=C(O)c1cc(-c2ccc(Cl)cc2)n(-c2ccc(F)cc2)n1
> 32 µg/mL	CCOC(=O)CN=C/C(C(C)=O)=C(/C)O
> 46.7 µg/mL	COc1cccc(/C=C(/C(=O)OCC(N)=O)c2ccccc2)c1
> 39.4 µg/mL	Cc1cccc(C)c1NC(=S)N1CCCCCC1
> 34.1 µg/mL	Cc1cc(=O)c2ccc(C(F)(F)F)cc2[nH]1
30.3 µg/mL (≈ 150 µM)	N#CCNc1ccc([N+](=O)[O-])cc1C#N
32 µg/mL (≈ 98.6 µM)	COc1ccc(C(=O)NCCc2c[nH]c3ccccc23)cc1OC
29.4 µg/mL (≈ 141 µM)	Cc1ccc(NC(=S)N(C)C)cc1C
> 36.5 µg/mL	Cc1ccnc2nc(NC(=O)c3ccco3)nn12
11.8 µg/mL (≈ 35.5 µM)	Cc1noc(C)c1C(=O)OC(C)C(=O)Nc1ccc2c(c1)OCO2 (stereo not given)
44.3 µg/mL (≈ 135 µM)	COc1ccc(C(CC(=O)N2CCCC2)c2ccc(F)cc2)cc1 (stereo not given)
> 58.6 µg/mL	O=C(c1cc(S(=O)(=O)N2CCOCC2)ccc1F)N1CCc2ccccc21
> 42.5 µg/mL	C=CCOc1cccc(CNc2cccc(C(=O)O)c2)c1
27.8 µg/mL (≈ 96.1 µM)	Cc1ccc(SCCNC(=O)c2ccccc2F)cc1
1.4 µg/mL (≈ 4 µM)	O=C(c1ccco1)c1cn(CC(=O)N2CCCCCC2)c2ccccc12
< 0.3 µg/mL	CCCC1CCC(c2ccc(/C(N)=N/O)cc2)CC1 (stereo not given)
> 50.2 µg/mL	Cc1cccc(C)c1NC(=O)CNC(=O)c1c(C)nn(C)c1Cl
5.8 µg/mL (≈ 18.6 µM)	O=C(/C=C/c1cccc(F)c1)c1ccc(N2CCOCC2)cc1
8.8 µg/mL (≈ 26.7 µM)	O=C(COc1ccccc1F)Nc1nc(-c2ccccn2)cs1
37.8 µg/mL (≈ 124 µM)	COC(=O)c1ccc(COC(=O)c2cccnc2Cl)cc1
23.1 µg/mL (≈ 69.1 µM)	CCOC(=O)C1=C(COC(=O)/C=C/c2ccco2)NC(=O)NC1C (stereo not given)
14 µg/mL (≈ 36.3 µM)	COc1ccc(NC(=O)c2cc([N+](=O)[O-])ccc2N2CCCCC2)cc1OC
40.1 µg/mL	CN1C=C/C(=C\c2cc[n+](C)c3ccccc23)c2ccccc21.[I-]

solubility kinetic	SMILES
2.7 µg/mL (≈ 9.16 µM)	O=C(NC(=S)NCc1ccco1)c1cccc(Cl)c1
> 40.4 µg/mL	Cc1cccnc1NC(=O)CNC(=O)c1ccccc1
35.2 µg/mL (≈ 144 µM)	Cn1ccnc1C(=O)Cc1ccc([N+](=O)[O-])cc1
5.5 µg/mL (≈ 20.8 µM)	O/C=c1\ccc2cccc3nc(C(F)(F)F)nc1c23
> 51.4 µg/mL	CC1(C)Cn2c(nc(=O)c3c2NCN(CCc2ccccc2)C3)S1
9.1 µg/mL (≈ 28.5 µM)	Cc1ccc(S(=O)(=O)CC(=O)c2ccc([N+](=O)[O-])cc2)cc1
1 µg/mL (≈ 2.86 µM)	Cc1ccc(Cl)cc1N1CCN(C(=S)NCc2ccco2)CC1
> 77 µg/mL	CN(C)C(=O)C(CCN1CCC(O)(c2ccc(Cl)cc2)CC1)(c1ccccc1)c1ccccc1.Cl
1.3 µg/mL (≈ 4.36 µM)	N#Cc1nc(-c2ccc([N+](=O)[O-])cc2)oc1N1CCCCC1
4.4 µg/mL (≈ 14.8 µM)	CN(Cc1ccc(F)cc1)Cc1nc(-c2ccccc2)no1
> 32.3 µg/mL	CCNC(=S)N1CCC(C(N)=O)CC1
> 33.8 µg/mL	CCOC(=O)c1[nH]c(C)c(C(=O)OC)c1C
> 48.1 µg/mL	CCOC(=O)C1CCN(c2ccc([N+](=O)[O-])c(C(C)=O)c2)CC1
> 39.8 µg/mL	CCOC(=O)CNC(=O)C1COc2ccccc2O1 (stereo not given)
6.9 µg/mL (≈ 21.8 µM)	CCCC(=O)Nc1sc(Cc2ccccc2)c(C)c1C(N)=O
35.7 µg/mL (≈ 109 µM)	O=C(NC1CCN(Cc2ccccc2)CC1)c1ccccc1Cl
1.8 µg/mL (≈ 6.1 µM)	Cc1cc(NC(=O)Cc2ccc(Br)cc2)no1
5 µg/mL (≈ 20.8 µM)	O=[N+]([O-])c1ccc2nc(-c3ccccn3)[nH]c2c1
43.4 µg/mL (≈ 137 µM)	Nc1ccc(Cl)c(S(=O)(=O)Nc2ccc(Cl)cc2)c1
53 µg/mL (≈ 145 µM)	O=c1[nH]c(=S)n(C2CCCCC2)c(O)c1C=NCCN1CCOCC1
> 51.1 µg/mL	O=C1CN(C(=O)COC(=O)COc2ccccc2)c2ccccc2N1
31.8 µg/mL (≈ 145 µM)	CSc1nc(N(C)C)c2ccccc2n1
> 41.6 µg/mL	CCOC(=O)c1cc2c(ccn2C)n1CC(=O)N(C)C
32 µg/mL (≈ 114 µM)	CCN(CC)CCNC(=O)COc1ccc(OC)cc1

solubility kinetic	SMILES
> 48.2 µg/mL	O=C(c1ccc2[nH]c(=O)c(=O)[nH]c2c1)N1CCc2ccccc2C1
5.3 µg/mL (≈ 15.1 µM)	Cc1ccc(NC(=O)c2ccco2)c(NC(=O)COc2ccccc2)c1
> 47.2 µg/mL	CCOc1ccc(C(=O)CCC(=O)Nc2ncccc2O)cc1
> 53.3 µg/mL	O=C(NC(=S)N1CCN(C/C=C/c2ccccc2)CC1)c1ccco1
> 43.2 µg/mL	CC1SCC(NC(=O)c2cccc(Cl)c2)CS1 (stereo not given)
3 µg/mL (≈ 8.56 µM)	CCC(=O)N(Cc1cc2cc(OC)ccc2[nH]c1=O)c1ccc(C)cc1
43 µg/mL (≈ 144 µM)	COc1ccccc1C(=O)NCCOc1ccc(C)c(C)c1
47.6 µg/mL (≈ 144 µM)	O=C(CN1CCN(c2ccccc2F)CC1)c1ccc(O)c(O)c1
> 38.9 µg/mL	C=C(C)C(=O)Oc1ccc(N2C(=O)CCC2=O)cc1
> 40.6 µg/mL	O=C1OC(CCl)CN1Cc1ccc([N+](=O)[O-])cc1 (stereo not given)
1.1 µg/mL (≈ 4.72 µM)	CN1/C(=C/C=C(C#N)C#N)C=Cc2ccccc21
> 42.5 µg/mL	O=C(N/N=C/c1ccncc1)C12CC3CC(CC(C3)C1)C2
> 70.9 µg/mL	CC(=O)Nc1ccc(S(=O)(=O)N(C)CC(=O)NNC(=O)Cc2nc3ccccc3n2C)cc1
> 79 µg/mL	COc1ccc(CN(C)C(=O)c2ccc(NS(=O)(=O)c3ccc4[nH]c(=O)[nH]c4c3)cc2)c(OC)c1OC
30.3 µg/mL (≈ 94 µM)	C=CCNC(=S)NC(CC(=O)OC)c1ccc2c(c1)OCO2 (stereo not given)
1.3 µg/mL (≈ 4.3 µM)	COc1ccc(C)cc1NC(=O)Nc1ccccc1SC
> 33.9 µg/mL	Cc1n[nH]c(=S)n1-c1ccc(Cl)cc1
8.9 µg/mL (≈ 28.8 µM)	O=C(COc1ccccc1)OCC(=O)c1c[nH]c2ccccc12
> 42 µg/mL	O=C1[C@@H]2CSCN2C(=O)CN1Cc1ccc(F)cc1
> 34.1 µg/mL	N#Cc1cccc(C#N)c1NCC1CCCO1 (stereo not given)
33.3 µg/mL (≈ 94.5 µM)	CC(C)(C)NC(=O)CN(C(=O)C1CSC(=O)C1)c1ccccc1F (stereo not given)
> 46.4 µg/mL	Br.COc1ccc(-c2nc3n(c2C)CCC3)cc1
21.3 µg/mL (≈ 69.1 µM)	Cc1cccc(NC(=O)CSc2cccc3cccnc23)c1
41.9 µg/mL (≈ 144 µM)	Cc1ccc(CSCC(=O)NCc2cccs2)cc1

solubility kinetic	SMILES
> 39.4 µg/mL	CC(=O)N1CCN(C23CC4CC(CC(C4)C2)C3)CC1
> 43.7 µg/mL	Cc1ccc(OCCC(=O)OC(C)C(=O)NC2CC2)cc1 (stereo not given)
> 41.4 µg/mL	O=C(O)CC(NCc1ccco1)C(=O)OCCCl (stereo not given)
0.8 µg/mL (≈ 2.34 µM)	CC(=O)c1ccc(N2CCN(C3CCC(C(C)(C)C)CC3)CC2)cc1 (stereo not given)
> 73.3 µg/mL	CCCCN(C(=O)CN(C)CC(=O)Nc1cccc(OC)c1)c1c(N)n(CCCC)c(=O)[nH]c1=O
24.8 µg/mL (≈ 92.8 µM)	COc1ccccc1NC(=O)Nc1ccccc1C#N
42.8 µg/mL (≈ 127 µM)	CC1CC(C)(C)NC(=S)N1CCCC(=O)Nc1ccc(F)cc1 (stereo not given)
> 43.7 µg/mL	Cc1nnc(SCC(=O)Nc2ccccc2)n(N)c1=O
0.6 µg/mL (≈ 1.75 µM)	CC(C)c1ccc(Nc2nc(Cl)nc(NCc3ccco3)n2)cc1
> 47.5 µg/mL	O=C(NCCc1csc(-c2cccc(F)c2)n1)c1ccco1
45.8 µg/mL (≈ 144 µM)	COc1cc2c(cc1OC)CN(C(=O)c1sccc1C)CC2
33.7 µg/mL (≈ 133 µM)	CCC(=O)c1ccc(SC(=O)N(C)C)cc1O
5.9 µg/mL (≈ 15.5 µM)	CC1CCN(C(=O)CN2C(=O)NC(C)(c3ccc4ccccc4c3)C2=O)CC1 (stereo not given)
> 30.2 µg/mL	CC(C)(C)OC(=O)N1CCC[C@@H]1CO
9.1 µg/mL (≈ 26.8 µM)	CCN(CC(=O)Nc1ccccc1Br)C1CCCCC1
53.9 µg/mL (≈ 137 µM)	O=C(O)CCCCCNC(=O)c1ccc(C(=O)NCCCCCC(=O)O)cc1
9.8 µg/mL (≈ 29.4 µM)	COc1ccc(CSC2=CS(=O)(=O)c3ccccc3N2)cc1
> 61.3 µg/mL	O=C(c1cc(-c2ccncc2)nc2ccccc12)N1CCN(Cc2ccccc2)CC1
18.1 µg/mL (≈ 59.1 µM)	COc1ccc(C2NC(=O)NC3=C2CCc2ccccc23)cc1 (stereo not given)
3.9 µg/mL (≈ 12.9 µM)	Cc1ccc(OCC(=O)Nc2cc(C(C)(C)C)on2)cc1C
> 47.7 µg/mL	O=C(Nc1ccc(Cl)cc1)N1CCCC(Cn2cccc2)C1 (stereo not given)
> 51.5 µg/mL	O=C(NNC(=O)C12CC3CC(CC(C3)C1)C2)c1cccc([N+](=O)[O-])c1
0.8 µg/mL (≈ 2.03 µM)	Cc1onc(-c2c(F)cccc2Cl)c1C(=O)N=C(N)N1CC(C)OC(C)C1 (stereo not given)
33.4 µg/mL (≈ 88 µM)	O=C(CCCN1CC=C(n2c(=O)[nH]c3ccccc32)CC1)c1ccc(F)cc1

solubility kinetic	SMILES
> 32.4 µg/mL	COc1ccc2nc(C)c(C(N)=O)cc2c1
< 0.3 µg/mL	CC(C)C1/C(=N/O)CC(c2ccccc2)NC1c1ccccc1 (stereo not given)
2.5 µg/mL (≈ 8.75 µM)	N#C/C(=C\c1ccc(Cl)c([N+](=O)[O-])c1)c1ccccn1
14.1 µg/mL (≈ 55.7 µM)	Cc1cc2nc(-c3ccc(=O)[nH]c3)n(C)c2cc1C
49.6 µg/mL (≈ 138 µM)	Nc1cc(N)nc(SCC(=O)Nc2ccccc2N2CCOCC2)n1
24.7 µg/mL (≈ 72.1 µM)	COc1ccc(NC(=O)C2CCN(c3cnccn3)CC2)cc1OC
> 36.1 µg/mL	Cl.c1ccc([C@H]2CN3CCSC3=N2)cc1
> 28.5 µg/mL	CCOc1ccc2c(c1)nc(C)n2C
12.5 µg/mL (≈ 40.5 µM)	O=C(Nc1nccs1)c1ncc(Cl)c(Cl)c1Cl
39.1 µg/mL (≈ 126 µM)	CC(=O)OC(C(=O)NC1CCCCC1)c1ccccc1Cl (stereo not given)
40.7 µg/mL (≈ 134 µM)	COc1cc(SC)ccc1C(=O)Nc1nc(C)cc(C)n1
> 32.3 µg/mL	O=c1[nH]cc(N(CCO)CCO)c(=O)[nH]1
< 0.3 µg/mL	COc1ccc(Cl)cc1NC(=O)CNc1ccccc1N1CCOCC1
7.8 µg/mL (≈ 24.5 µM)	CCc1ccc(/C=C(\C#N)C(=O)NC2CCS(=O)(=O)C2)cc1 (stereo not given)
2.3 µg/mL (≈ 7.51 µM)	Cc1ccc(-c2onc3ccc(C(=O)/C=C/N(C)C)cc23)cc1
> 38 µg/mL	CC(=O)Nc1nc2c(s1)C(=O)NCC(C)(C)C2
26.1 µg/mL (≈ 109 µM)	O=C(NC1CCS(=O)(=O)C1)c1cccnc1 (stereo not given)
4.6 µg/mL (≈ 16.3 µM)	O=C1NC(=Nc2ccccc2)SC1Cc1ccccc1 (stereo not given)
> 50.6 µg/mL	COC(=O)c1sc(-c2cccs2)cc1NC(=O)/C=C/C(=O)O
> 40.9 µg/mL	CC(=O)Nc1nnc(SCC(=O)NC2CC2)s1
27.9 µg/mL (≈ 88.9 µM)	CN(CC(=O)Nc1cccc(C#N)c1)Cc1ccc(Cl)cc1
> 59.9 µg/mL	CCN(C(=O)CN1CCCC(C)C1)c1c(N)n(Cc2ccccc2)c(=O)[nH]c1=O (stereo not given)
> 49.8 µg/mL	CCCCC(=O)Nc1cccc(NC(=O)c2cccnc2Cl)c1

SMILES	solubility kinetic
Cl.N=c1ccccn1Cc1ccccc1	> 33.1 µg/mL
